What is called EC50 is the concentration needed to bring the measured effect to its halfway point. Low values mean a more potent agent, high ones a less potent agent.

The structures appear in SMILES notation.

51 compounds from patent US8034940B2, “Modulators of glucocorticoid receptor, AP-1, and/or NF-κB activity and use thereof” (Bristol-Myers Squibb Company, priority 2006, dated 2011) can be followed below.

The test system of the experiment is AP-1 induced transcriptional activity. The experiment in a line: Cellular Transrepressional Assay (AP-1 luciferase reporter, PMA-activated A549 cells). In kind it is cell-based. Conditions: for Emax: A549, 7 h, read-out: AP-1 Max % inh (Cellular Transrepression Assay); for Emax / AP-1 Max % inh (Cellular Transrepression Assay): maximum inhibition. The essentials:
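Compounds tested from 0.1 nM to 40 μM during a 7 h PMA (10 ng/ml) stimulation of A549 cells stably transfected with 7× AP-1 sites driving luciferase. Repression expressed as % reduction of PMA-induced luminescence; EC50 by curve fitting.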
In general terms: A reporter such as luciferase makes a cellular process visible.

Setting [1] is: Homo sapiens, Cellular Transrepression Assay.
Where [2] appears, read: Homo sapiens, A549, Cellular Transrepression Assay.

On to `CN(C)C(=O)c1ccc(-c2ccc3c(n2)Oc2ccccc2C3C2(C(=O)Nc3nncs3)CCC2)cc1` (centres unmarked) [Example 479], for which, under setting [1], the Emax came out at 44.4%. Besides, a half-maximal effect under setting [2] (EC50) was put at 47 nM.

On to `CC(C)(C(=O)Nc1nncs1)C1c2ccccc2Oc2cc(OC(=O)NCc3ccc(Cl)c(Cl)c3)ccc21` (centres unmarked) [Example 379], for which, under “Cellular Transrepression Assay”, it took 74 nM to reach a half-maximal effect (EC50) and the “AP-1 Max % inh (Cellular Transrepression Assay)” value (shortened to “AP-1 Max % inh”) is 51.21%.

Take `Cc1nnc(NC(=O)C(C)(C)[C@H]2c3ccccc3Oc3nc(-c4ccc(C(=O)N5CCOCC5)c(Cl)c4)ccc32)s1` [Example 473]: under setting [1], the Emax came out at 52.5%. Under setting [2], this compound registered an EC50 of 40.2 nM.

In the case of `CC(C)(C)NC(=O)Oc1ccc2c(c1)Oc1ccccc1C2C(C)(C)C(=O)Nc1nncs1` (centres unmarked) [Example 382], the Emax under setting [1] was determined as 47.2%. For the same compound, the EC50 under setting [2] is 206 nM.

Take `COc1ccc2c(c1)Oc1ccccc1C2C(C)(C)C(=O)Nc1nc(-c2ccc(F)c3ccccc23)cs1` (centres unmarked) [Example 45]: under setting [1], the Emax was 71.5%. Further, a half-maximal effect under setting [2] (EC50) was put at 102 nM.

`CC(C)(C(=O)Nc1nncs1)[C@@H]1c2ccccc2Oc2cc(O)ccc21` [Example 95]: the Emax under setting [1] is 52.2%. Also, the EC50 under setting [2] was found to be 574 nM.

Turning to `CC(C)(C(=O)Nc1nc(-c2cccc3ccccc23)cs1)C1c2ccccc2Oc2ccccc21` [Example 30], under setting [1], the Emax was 67.2%. Besides, the EC50 under setting [2] was 338 nM.

With `O=C(CC1c2ccccc2Sc2ccccc21)Nc1nc(-c2ccc(F)c3ccccc23)cs1` [Example 26], the Emax under setting [1] was found to be 26.9%.

`CN1CCN(c2ccc3c(n2)Oc2ccccc2C3C(C)(C)C(=O)Nc2nncs2)CC1` (centres unmarked) [Example 131]: the Emax under setting [1] was 45.6%. In addition, the EC50 under setting [2] was found to be 970 nM.

As to `CC(C)(C(=O)Nc1nncs1)C1c2ccccc2Oc2nc(-c3ccc(O)cc3)ccc21` (centres unmarked) [Example 191], under “Cellular Transrepression Assay”, the EC50 was 22.6 nM and the “AP-1 Max % inh” value came out at 37.51%.

Regarding `CC(C)C1CCCN1C(=O)c1ccc(-c2ccc3c(n2)Oc2ccccc2[C@@H]3C(C)(C)C(=O)Nc2nncs2)cc1` (some centres unmarked) [Example 318], under setting [1], the Emax turned out to be 27.6%. For the same compound, the EC50 under setting [2] was found to be 63.1 nM.

Regarding `CC(C)(O)c1ccc(-c2ccc3c(n2)Oc2ccccc2[C@@H]3C(C)(C)C(=O)NC#N)cc1` [Example 399], the Emax under setting [1] was 69.3%. For the same compound, under setting [2], the EC50 stood at 333 nM.

Turning to `CC(C)Oc1ccc(-c2ccc3c(n2)Oc2ccccc2[C@@H]3C(C)(C)C(=O)Nc2ncns2)cc1F` [Example 459], under setting [1], the Emax came to 35.4%. The same compound had an EC50 under setting [2] of 102 nM.

`CC(C)(C(=O)Nc1nc(Cc2ccc(-c3ccncc3)cc2)cs1)C1c2ccccc2Sc2ccccc21` [Example 5]: under setting [1], the Emax was found to be 66%. This compound also yielded an EC50 under setting [2] of 58.2 nM.

On to `Cc1nnc(NC(=O)C2(C3c4ccccc4Oc4nc(-c5ccc(C(=O)N(C)C)cc5)ccc43)CCC2)s1` (centres unmarked) [Example 488], for which the Emax under setting [1] was 34.5%. Moreover, the EC50 under setting [2] is 42.9 nM.

For `CN(C)C(=O)c1ccc(-c2ccc3c(n2)Oc2c(F)cccc2C3C(C)(C)C(=O)Nc2nncs2)cc1` (racemic) [Example 164], for the setting “Cellular Transrepression Assay”, the 50% effective concentration (EC50) is 5.58 nM and the “AP-1 Max % inh” value worked out at 57.26%.

With `CC(C)(C(=O)Nc1nncs1)C1c2ccccc2Oc2cc(NC(=O)OCc3ccccc3)ccc21` (centres unmarked) [Example 119], the Emax under setting [1] came out at 45.3%. This compound registered an EC50 under setting [2] of 83 nM.

On to `COc1ccc2c(c1)Oc1ccccc1[C@@H]2C(C)(C)C(=O)Nc1nc(Cc2ccc(-c3cccnc3)cc2)cs1` [Example 59], for which the Emax under setting [1] turned out to be 58.4%. For the same compound, under setting [2], the response was half-maximal at 11.8 nM (EC50).

For `Cc1ccc(COC(=O)Nc2ccc3c(c2)Oc2ccccc2C3C(C)(C)C(=O)Nc2nncs2)cc1` (centres unmarked) [Example 121], the Emax under setting [1] worked out at 44.8%. This compound also came in with an EC50 under setting [2] of 59.5 nM.

Regarding `C[S+]([O-])c1ccc(-c2ccc3c(n2)Oc2ccccc2[C@@H]3C(C)(C)C(=O)Nc2nncs2)cc1` (some centres unmarked) [Example 241], the Emax under setting [1] amounted to 46.8%. Moreover, the EC50 under setting [2] was determined as 25.3 nM.

Regarding `COc1ccc2c(c1)Oc1ccccc1[C@H]2C(C)(C)C(=O)Nc1nc(Cc2ccc(-c3ccncc3)cc2)cs1` [Example 54], the Emax under setting [1] is 71.4%. Under setting [2], this compound showed an EC50 of 13.1 nM.

`Cc1csc(NC(=O)C(C)(C)[C@H]2c3ccccc3Oc3cc(O)ccc32)n1` [Example 88]: the Emax under setting [1] was found to be 49.2%. The compound also registered an EC50 under setting [2] of 128 nM.

For the compound `CC(C)(C(=O)Nc1nnc(CF)s1)[C@H]1c2ccccc2Oc2nc(-c3ccc(C(=O)N4CCOCC4)cc3)ccc21` [Example 430], the Emax under setting [1] was determined as 47.2%. The compound also gave an EC50 under setting [2] of 34.7 nM.

Turning to `CC(C)(C(=O)Nc1nncs1)C1c2ccccc2Oc2cc(NC(=O)NC3CCCC3)ccc21` (centres unmarked) [Example 125], the Emax under setting [1] turned out to be 33.2%. For the same compound, the response under setting [2] was half-maximal at 94.3 nM (EC50).

Regarding `CC(C)(C(=O)Nc1nncs1)[C@H]1c2ccccc2Oc2nc(-c3ccc(C(=O)N4CCC(F)(F)C4)c(Cl)c3)ccc21` [Example 340], the Emax under setting [1] stood at 67.6%. Further, under setting [2], the concentration giving a half-maximal response (EC50) is 54.8 nM.

`CC(C)Oc1ccc(-c2ccc3c(n2)Oc2ccccc2C3C(C)(C)C(=O)Nc2nncs2)cc1` (centres unmarked) [Example 209]: where the note is “Cellular Transrepression Assay”, the EC50 was 14.3 nM and the “AP-1 Max % inh” value amounted to 50.21%.

Take `Cc1nnc(NC(=O)C(C)(C)[C@H]2c3ccccc3Oc3nc(-c4ccc(C(=O)N5CCC(F)(F)C5)cc4)ccc32)s1` [Example 466]: the Emax under setting [1] is 56.1%. This compound also had a concentration giving a half-maximal response (EC50) under setting [2] of 28.2 nM.

For the compound `CC(C)(C(=O)Nc1nc(-c2ccc(F)c3ccccc23)cs1)C1c2ccccc2Oc2ncccc21` (centres unmarked) [Example 63], the Emax under setting [1] came to 75.8%.

`CC(C)(C(=O)Nc1nncs1)C1c2ccccc2Oc2nc(-c3ccc(N)cc3)ccc21` (centres unmarked) [Example 200]: where the note is “Cellular Transrepression Assay”, the EC50 was 134 nM and the “AP-1 Max % inh” value came out at 53.76%.

Take `CC(C)(C(=O)Nc1nc(-c2ccc(F)c3ccccc23)c[nH]1)C1c2ccccc2Oc2ccccc21` [Example 38]: under setting [1], the Emax worked out at 70.4%.

Take `CC(C)(C(=O)Nc1nncs1)C1c2ccccc2Oc2cc(OC(=O)NCCc3cccs3)ccc21` (centres unmarked) [Example 376]: where the note is “Cellular Transrepression Assay”, the EC50 turned out to be 34.4 nM and the “AP-1 Max % inh” value came out at 45.09%.

Turning to `Cc1nnc(NC(=O)C(C)(C)C2c3ccc(-c4ccc(C(=O)N(C)C)c(F)c4)nc3Oc3c(F)cccc32)s1` (centres unmarked) [Example 165], the Emax under setting [1] came to 53.4%. In addition, the EC50 under setting [2] is 9.8 nM.

Take `CNC(=O)c1ccc(-c2ccc3c(n2)Oc2ccccc2[C@@H]3C(C)(C)C(=O)Nc2nncs2)cc1` [Example 348]: the Emax under setting [1] stood at 34.4%. It took 300 nM to reach a half-maximal effect under setting [2] (EC50).

With `CC(=O)c1ccc(-c2ccc3c(n2)Oc2ccccc2[C@@H]3C(C)(C)C(=O)Nc2nncs2)s1` [Example 452], the Emax under setting [1] was 53.4%. This compound also came in with an EC50 under setting [2] of 11.1 nM.

As for `CC(C)(C(=O)Nc1nncs1)C1c2ccccc2Oc2cc(OC(=O)NCCc3ccccc3)ccc21` (centres unmarked) [Example 375], for the setting “Cellular Transrepression Assay”, a half-maximal response (EC50) required 82.8 nM and the “AP-1 Max % inh” value was 51.24%.

For the compound `CC(C)Oc1ccc(-c2ccc3c(c2)Oc2ccccc2C3C(C)(C)C(=O)Nc2nncs2)nc1` (centres unmarked) [Example 105], under setting [1], the Emax stood at 30.5%. A half-maximal effect under setting [2] (EC50) was put at 12.2 nM.

For the compound `CN(C)C(=O)c1ccc(-c2ccc3c(n2)Oc2ccccc2[C@@H]3C(C)(C)C(=O)Nc2nnc(C(F)(F)F)s2)cc1` [Example 446], under setting [1], the Emax was 27.7%. Under setting [2], the EC50 was determined as 413 nM.

Turning to `CC(C)(C(=O)Nc1nncs1)[C@H]1c2ccccc2Oc2nc(-c3ccncc3)ccc21` [Example 219], where the note is “Cellular Transrepression Assay”, the EC50 is 180 nM and the “AP-1 Max % inh” value was 35.87%.

Take `CC(C)(C(=O)Nc1nnc(CO)s1)[C@H]1c2ccccc2Oc2nc(-c3ccc(C(=O)N4CCCC4)c(F)c3)ccc21` [Example 423]: the Emax under setting [1] is 30.4%. This compound also displayed an EC50 under setting [2] of 82 nM.

For the compound `CCCCCCCCNC(=O)Oc1ccc2c(c1)Oc1ccccc1C2C(C)(C)C(=O)Nc1nncs1` (centres unmarked) [Example 374], the Emax under setting [1] was 50.9%. For the same compound, the response under setting [2] was half-maximal at 30.9 nM (EC50).

As for `CC(C)(C(=O)Nc1nncs1)C1c2ccccc2Oc2cc(OC(=O)NCC3CCCCC3)ccc21` (centres unmarked) [Example 392], under “Cellular Transrepression Assay”, it took 49.7 nM to reach a half-maximal effect (EC50) and the “AP-1 Max % inh” value is 44.82%.

With `CCSc1ccc(-c2ccc3c(n2)Oc2ccccc2C3C(C)(C)C(=O)Nc2nncs2)cc1` (centres unmarked) [Example 226], under “Cellular Transrepression Assay”, the EC50 was found to be 18.1 nM and the “AP-1 Max % inh” value was found to be 49.05%.

`O=C(CC1c2ccccc2Sc2ccccc21)Nc1nc(-c2cccc3ccccc23)cs1` [Example 28]: the Emax under setting [1] worked out at 43.7%.

Consider `CC(C)(C(=O)Nc1nncs1)C1c2ccccc2Oc2nc(N)ccc21` (centres unmarked) [Example 159], for which the Emax under setting [1] stood at 30.3%. The compound further displayed an EC50 under setting [2] of 479 nM.

With `CC(C)(C(=O)Nc1nc(Cc2ccc(Br)cc2)cs1)C1c2ccccc2Oc2ccccc21` [Example 35], under setting [1], the Emax is 72.3%. The EC50 under setting [2] is 80.6 nM.

As for `COC(=O)Cc1ccc(-c2ccc3c(n2)Oc2ccccc2[C@@H]3C(C)(C)C(=O)Nc2nncs2)cc1` [Example 238], the Emax under setting [1] stood at 62.3%. Moreover, the response under setting [2] was half-maximal at 601 nM (EC50).

Turning to `CC(C)(C(=O)Nc1nncs1)C1c2ccccc2Oc2cc(OC(=O)NCCCc3ccccc3)ccc21` (centres unmarked) [Example 380], under “Cellular Transrepression Assay”, the midpoint of the response, the EC50, lay at 101 nM and the “AP-1 Max % inh” value was 53.58%.

Consider `CCNC(=O)Oc1ccc2c(c1)Oc1ccccc1[C@@H]2C(C)(C)C(=O)Nc1nncs1` [Example 371], for which the Emax under setting [1] stood at 48.7%. This compound displayed a concentration for a half-maximal effect (EC50) under setting [2] of 22.3 nM.

As for `CC(C)(C(=O)Nc1nncs1)[C@H]1c2ccccc2Oc2nc(-c3ccc(C(=O)N4CCCC4)c(Cl)c3)ccc21` [Example 341], where the note is “Cellular Transrepression Assay”, the EC50 was determined as 14.8 nM and the “AP-1 Max % inh” value came to 50.27%.

Consider `Cc1nnc(NC(=O)C(C)(C)[C@H]2c3ccccc3Oc3nc(-c4ccc(C(=O)N5CCCC5)cc4)ccc32)s1` [Example 460], for which the Emax under setting [1] is 56.9%. Under setting [2], this compound displayed an EC50 of 30.3 nM.

In the case of `COc1ccc(CNC(=O)Oc2ccc3c(c2)Oc2ccccc2C3C(C)(C)C(=O)Nc2nncs2)cc1` (centres unmarked) [Example 391], where the note is “Cellular Transrepression Assay”, the EC50 stood at 52 nM and the “AP-1 Max % inh” value came out at 44.08%.
